The values below come from patent US10533992B2, “Method for screening for sunlight protection functional material and method for evaluating sunlight protection effect” (AMOREPACIFIC CORPORATION, priority 2015, dated 2020).

Assay [1] deals with HBD-1, HBD-2, HBD-3, LL-37, psoriasin, dermcidin, and RNase 7. As to the kind of experiment: AMP expression (Q-RT-PCR) in keratinocytes treated with Poly I:C and the scavengers PTIO or NAC, with or without blue/violet light. The assay is classed as cell-based, human. The method, then: (§1) First, according to a commercially secured and recommended method, the human epidermal neonatal keratinocytes used in the present invention were purchased from Lonza, Inc. (Walkersville, Md., US), subcultured, and then cultured in a CO2 incubator under the conditions of 37° C. and 5% CO2. The culture medium was prepared according to the guideline provided by Lonza, Inc. KGM-2 Bullet kit: BPE (Bovine pituitary extract) 2 ml, hEGF (human epidermal growth factor) 0.5 ml, insulin 0.5 ml, hydrocortisone 0.5 ml, transferrin 0.5 ml, epinephrine 0.5 ml, and gentamycin sulfate+amphotericin-B(GA-1000) 0.5 ml were added to 500 ml of KBM-2 (Clonetics CC-3103) medium.
(§2) Subsequently, blue/violet light of a wavelength from 400 to 500 nm was radiated to the medium in which human epidermal neonatal keratinocytes is cultured (10 J/cm^2). […]
(§3) Then, the separated RNA was once again purified by using an RNA kit (QIAGEN RNeasy kt, QIAGEN, Valencia, Calif.), and then the quality of the RNA was examined by using Agilent 2100 BioAnalyzer (Agilent Technologies, Santa Clara, Calif., USA). The Superscript Reverse Transcriptase (RT) kit (Invitrogen, Carlsbad, Calif.) was used to synthesize cDNA from the RNA, and the cDNA was quantitatively analyzed through a real time-reverse transcription polymerase chain reaction (Q-RT-PCR). […]

Assay [2] concerns HBD-1, HBD-2, HBD-3, LL-37, psoriasin, dermcidin, and RNase7. As to the kind of experiment: AMP expression (Q-RT-PCR) in keratinocytes treated with Poly I:C and flagellin, with or without blue/violet light. The assay is classed as cell-based. Particulars: human epidermal neonatal keratinocytes; Poly I:C and flagellin treatment; FIGS. 3a to 3g. The method, then:
as §1, §2, §3

`CC1(C)N([O])C(c2ccc(C(=O)[O-])cc2)=[N+]([O-])C1(C)C.[K+]` [PTIO, 2-(4-Carboxyphenyl)-4,4,5,5-tetramethylimidazoline-1-oxyl-3-oxide potassium salt]: the “expression level of the AMPs on blue/violet light radiation” value in assay [1] (Poly I:C treated keratinocytes, blue/violet light 10 J/cm^2, scavenger treated group) was “not reduced”.
For the compound Poly I:C, the “expression level of HBD-1, HBD-2, HBD-3, LL-37, psoriasin, dermcidin, and RNase7” value in assay [2] is “increased”; in assay [1] (human epidermal neonatal keratinocytes, Poly I:C treatment, FIGS. 4a to 4g), “increased”.
For the compound flagellin, in assay [2], the “expression level of HBD-1, HBD-2, HBD-3, LL-37, psoriasin, dermcidin, and RNase7” value is recorded as “increased”.
